Read-outs that look alike come from different tables or passages of the source. Ends that are not written are not given here. Peptide text beside a SMILES is read from it.
What was measured:
[1] = tested on: VcMbnBC; assay: ITC measurement of VcMbnA and variants binding affinity to VcMbnBC; design: species or system Vibrio caribbenthicus BAA-2122
Method: MbnBC and the mutant proteins were all purified using the two-step standard method described above. The purified proteins were adjusted to 1 mg/mL and stored in 25 mM HEPES (pH 8.0) and 100 mM NaCl for ITC measurement. The MbnAs were dissolved and diluted to a working concentration of 2 mM in distilled water. ITC experiments were performed on a Nano ITC (Nano ITC-Low Volume; TA instrument, USA). Settings for the MbnA binding assay were optimized as follows: the titration assay was performed at 16 °C by injecting 2.5 μL MbnA peptide into a full cell containing 190 μL MbnBC or mutant MbnBC proteins every 120 s for a total of 20 injections, and the stirrer syringe stirring speed was set at 250 rpm.

[2] = target: T1, RrMbnBC (Rugamonas rubra, UniProt A0A1I4IFH0+A0A1I4IFL0); assay: UV-Vis activity assay, MbnA modification by RrMbnBC; assay type: biochemical, Rugamonas rubra ATCC 43154; conditions: co-expressed in Escherichia coli
T1 sequence (A0A1I4IFL0 1-277): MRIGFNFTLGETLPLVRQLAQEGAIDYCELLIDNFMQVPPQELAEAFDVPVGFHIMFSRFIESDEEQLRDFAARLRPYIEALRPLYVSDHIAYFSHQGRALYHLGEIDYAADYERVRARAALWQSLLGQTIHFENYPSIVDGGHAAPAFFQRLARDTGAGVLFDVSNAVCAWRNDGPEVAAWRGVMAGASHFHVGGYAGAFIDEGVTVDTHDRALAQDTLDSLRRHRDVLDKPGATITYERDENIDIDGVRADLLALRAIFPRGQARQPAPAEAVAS
T1 sequence (A0A1I4IFH0 1-199): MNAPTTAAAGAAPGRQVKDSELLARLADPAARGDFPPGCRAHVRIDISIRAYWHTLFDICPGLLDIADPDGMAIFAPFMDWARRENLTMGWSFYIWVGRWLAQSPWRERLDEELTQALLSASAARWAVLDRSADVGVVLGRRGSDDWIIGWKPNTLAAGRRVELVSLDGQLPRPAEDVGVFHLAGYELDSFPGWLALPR
Method: Standard UV-Vis spectra detection was performed on a UV-Vis and Vis instrument (Ultrospec 2100 pro, Biochrom, UK) at room temperature. MtMbnBC and RrMbnBC proteins were adjusted to 5 mg/mL (nearly 100 μM), and VcMbnBC was adjusted to a concentration of 1 mg/mL (nearly 20 μM). The corresponding substrates, VcMbnA, RrMbnA, MtMbnA, and their variants (Supplementary information, Table S5), were dissolved in distilled water and diluted to a working concentration of 5 mM with buffer B. The reaction was initiated when 100 μL MbnBC proteins and 5 μL MbnA peptides were applied to the reaction system, and the reaction was diluted up to 1 mL with buffer B. The mixture was then added into a quartz cuvette and recorded at 20-s intervals for a total of 50 reads at room temperature. For assays using anaerobically prepared MbnBC proteins, the measurements were immediately recorded by adding the anaerobically prepared MbnBC into the reaction system, with peptides pre-mixed in the quartz cuvette. The buffer B used in the assay was O2-saturated at room temperature.
For the stopped-flow UV-Vis spectroscopic analysis, 10 μM MtMbnBC or RrMbnBC or 2 μM VcMbnBC was incubated with 250 μM MbnA peptides at room temperature for 1 h, followed by detection on a UV-Vis and Vis instrument (Nanodrop One, Thermo Scientific, MA). Data were processed by Graphpad Prism version 8.3.

[3] = target: T1, RrMbnBC; assay: Limited proteolysis assay of RrMbnBC with MbnA; design: species or system Rugamonas rubra ATCC 43154; conditions: ~20 µM RrMbnBC incubated with MbnA 1 h at 4 °C, trypsin 30 min on ice, SDS-PAGE
Method: The limited proteolysis assay allows the characterization of the increase in stability of wild-type proteins upon binding to their substrates. The VcMbnBC and RrMbnBC proteins used in this assay were all adjusted to an equal molar concentration of about 20 µM. The RrMbnBC or VcMbnBC complex, by itself or after incubation with the corresponding MbnA peptide for 1 h at 4 °C, was digested by trypsin. After 30 min of incubation on ice, the proteolyzed products were analyzed by SDS-PAGE and visualized by Coomassie blue staining.

[4] = target: T2, RrMbnBC complex (Rugamonas rubra ATCC 43154); assay: ITC
T2 chain 1: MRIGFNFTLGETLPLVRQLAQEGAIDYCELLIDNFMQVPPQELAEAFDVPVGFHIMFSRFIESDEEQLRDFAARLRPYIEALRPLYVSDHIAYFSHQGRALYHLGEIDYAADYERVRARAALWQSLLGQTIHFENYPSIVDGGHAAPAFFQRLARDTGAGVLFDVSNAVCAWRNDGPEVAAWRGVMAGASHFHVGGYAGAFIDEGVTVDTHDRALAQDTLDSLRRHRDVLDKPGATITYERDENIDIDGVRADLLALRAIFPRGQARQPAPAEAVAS
T2 chain 2: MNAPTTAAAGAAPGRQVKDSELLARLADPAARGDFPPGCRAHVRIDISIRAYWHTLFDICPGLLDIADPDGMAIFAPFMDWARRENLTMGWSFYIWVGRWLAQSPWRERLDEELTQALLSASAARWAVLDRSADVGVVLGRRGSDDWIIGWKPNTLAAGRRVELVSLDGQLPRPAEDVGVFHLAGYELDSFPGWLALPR

[5] = target: T2, RrMbnBC complex; assay: ITC
[6] = target: T3, VcMbnBC complex (Vibrio caribbenthicus BAA-2122); assay: ITC
T3 chain 1: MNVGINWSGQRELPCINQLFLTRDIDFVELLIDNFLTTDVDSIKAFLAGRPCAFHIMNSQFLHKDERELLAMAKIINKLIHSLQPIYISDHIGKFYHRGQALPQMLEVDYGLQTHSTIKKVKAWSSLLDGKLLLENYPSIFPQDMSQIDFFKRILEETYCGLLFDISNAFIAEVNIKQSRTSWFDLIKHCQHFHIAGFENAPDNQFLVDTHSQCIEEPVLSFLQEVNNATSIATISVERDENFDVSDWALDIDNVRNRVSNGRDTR
T3 chain 2: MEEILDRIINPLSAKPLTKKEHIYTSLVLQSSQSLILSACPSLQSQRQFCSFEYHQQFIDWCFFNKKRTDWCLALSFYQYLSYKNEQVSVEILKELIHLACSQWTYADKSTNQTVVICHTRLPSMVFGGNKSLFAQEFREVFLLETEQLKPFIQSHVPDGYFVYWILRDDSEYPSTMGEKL

In the case of MKNDKKVVVKVKDKEM [LP], the “interaction with VcMbnBC (binding assays, in words)” value ([1]; ITC binding assays of VcMbnBC with VcMbnA variants) is reported as “weak interaction” and the Kd ([1]; ITC, 16 °C, 2 mM peptide, 20 injections of 2.5 μL into 190 μL VcMbnBC 1 mg/mL in 25 mM HEPES pH 8.0, 100 mM NaCl, one-site binding, read-out: Kd, VcMbnA or variant/VcMbnBC) is reported as 63.8 ± 10.5 µM.

With `CC[C@H](C)[C@H](NC(=O)[C@H](CCC(=O)O)NC(=O)[C@@H](NC(=O)[C@H](CCCCN)NC(=O)[C@H](CCCCN)NC(=O)[C@@H](NC(=O)[C@@H](NC(=O)[C@@H](NC(=O)[C@@H](NC(=O)[C@H](CCCCN)NC(=O)[C@@H](N)CCSC)[C@@H](C)CC)C(C)C)[C@@H](C)CC)C(C)C)C(C)C)C(=O)N[C@@H](CCC(N)=O)C(=O)N[C@H](C(=O)N[C@@H](C)C(=O)NCC(=O)N[C@@H](CCCNC(=N)N)C(=O)N[C@H](C(=O)NCC(=O)N[C@@H](CCSC)C(=O)N[C@@H](CCCNC(=N)N)C(=O)N[C@@H](CS)C(=O)N[C@@H](C)C(=O)N[C@@H](CO)C(=O)N[C@@H](CO)C(=O)N[C@@H](CS)C(=O)NCC(=O)N[C@@H](C)C(=O)N[C@@H](CCCCN)C(=O)N[C@@H](CO)C(=O)O)[C@@H](C)O)C(C)C` [RrMbnA] (H-MKIVIVKKVEIQVAGRTGMRCASSCGAKS-OH) the “modification by co-expressed RrMbnBC, UV-Vis absorption at ~335 nm” value [2] was “could be modified” and the “effect on RrMbnBC stability in limited proteolysis” value [3] was “enhance RrMbnBC stability”.

For MKIVIVKKVEIQVAGRTGMRCASSCGAKS [RrMbnA peptide], the Kd [4] was 2.7 µM.

Work on MKNDKKVVVKVKDKEMTCGAFNK [VcMbnA peptide] yielded a Kd [5] of 4.14 µM and a Kd [6] of 3 µM.

— PMC8888699, “Crystal structure and catalytic mechanism of the MbnBC holoenzyme required for methanobactin biosynthesis” (Cell Research, 2022)
